From patent US20150164762A1, “USE OF ETHANOLAMINE PHOSPHATE” (priority 2012, published 2015)

System: BEAS-2B
Assay: Comprehensive gene expression analysis with Whole Human Genome DNA microarray after EP treatment
Type: cell-based
Experimental: Cells of the established normal human airway epithelial cell line BEAS-2B were used in the experiment. These cells were expansively cultured in 10% FBS RPMI-1640, and seeded at a density of 1×10^5/cm^2 on a 24-well plate. After 24 hours 0.1% FBS RPMI-1640 was substituted, and EP was administered to a final concentration of 0 or 1 mM (n=4). After 24 hours, the cells were used as the DNA microarray samples. RNA was extracted using a QIAGEN RNeasy Mini Kit. The DNA microarray test was performed using a Whole Human Genome DNA microarray 4×44K (Agilent), and the necessary labeling reagents and the like for the DNA microarray test were all from Agilent. The DNA microarray test data were analyzed statistically with GeneSpring (Agilent) dedicated analysis software, and gene function analysis (Gene Ontology (GO) analysis) was performed based on differential expression. The purpose of the GO analysis is to determine stochastically the degree to which gene sets with statistically significant differential expression correspond to known functional classification gene sets. […] The p-value is calculated according to the following formula.

[1] = probe A_23_P149529, 1 mM EP, 24 h
[2] = probe A_23_P151294, NM_000619, EP vs control
[3] = probe A_23_P151294, 1 mM EP, 24 h
[4] = probe A_23_P151649, NM_080649, EP vs control
[5] = probe A_23_P156310, 1 mM EP, 24 h
[6] = probe A_23_P159210, 1 mM EP, 24 h
[7] = probe A_23_P160025, 1 mM EP, 24 h
[8] = probe A_23_P163787, 1 mM EP, 24 h
[9] = probe A_23_P167096, 1 mM EP, 24 h
[10] = probe A_23_P167585, NM_005260, EP vs control
[11] = probe A_23_P168882, 1 mM EP, 24 h
[12] = probe A_23_P168909, 1 mM EP, 24 h
[13] = probe A_23_P169030, 1 mM EP, 24 h
[14] = probe A_23_P169738, 1 mM EP, 24 h
[15] = probe A_23_P201808, 1 mM EP, 24 h
[16] = probe A_23_P202978, 1 mM EP, 24 h
[17] = probe A_23_P206077, 1 mM EP, 24 h
[18] = probe A_23_P206396, 1 mM EP, 24 h
[19] = probe A_23_P206661, NM_000903, EP vs control
[20] = probe A_23_P207003, 1 mM EP, 24 h
[21] = probe A_23_P207999, 1 mM EP, 24 h
[22] = probe A_23_P208706, 1 mM EP, 24 h
[23] = probe A_23_P209625, NM_000104, EP vs control
[24] = probe A_23_P211762, 1 mM EP, 24 h
[25] = probe A_23_P211957, 1 mM EP, 24 h
[26] = probe A_23_P213706, NM_000589, EP vs control
[27] = probe A_23_P213745, NM_004887, EP vs control
[28] = probe A_23_P214950, 1 mM EP, 24 h
[29] = probe A_23_P217866, 1 mM EP, 24 h
[30] = probe A_23_P250554, 1 mM EP, 24 h
[31] = probe A_23_P252817, 1 mM EP, 24 h
[32] = probe A_23_P253932, 1 mM EP, 24 h
[33] = probe A_23_P255653, 1 mM EP, 24 h
[34] = probe A_23_P258194, 1 mM EP, 24 h
[35] = probe A_23_P258310, NM_144651, EP vs control
[36] = probe A_23_P259071, NM_001657, EP vs control
[37] = probe A_23_P303210, 1 mM EP, 24 h

NCCOP(=O)(O)O [EP, Ethanolamine phosphate]
TACSTD2 expression R*: Ratio to control [1]: 1.507 times
TACSTD2 expression log2 [ratio] [1]: 0.591
IFNG gene expression, R* ratio to control [2]: 0.611 times
IFNG gene expression, log2 [ratio] [2]: −0.710
IFNG expression R*: Ratio to control [3]: 0.611 times
IFNG expression log2 [ratio] [3]: −0.710
APEX1 gene expression, R* ratio to control [4]: 1.455 times
APEX1 gene expression, log2 [ratio] [4]: 0.541
SKP2 expression R*: Ratio to control [5]: 1.531 times
SKP2 expression log2 [ratio] [5]: 0.615
CDKN1A expression R*: Ratio to control [6]: 0.439 times
CDKN1A expression log2 [ratio] [6]: −1.187
IFI16 expression R*: Ratio to control [7]: 0.629 times
IFI16 expression log2 [ratio] [7]: −0.669
MMP2 expression R*: Ratio to control [8]: 1.578 times
MMP2 expression log2 [ratio] [8]: 0.658
VEGFC expression R*: Ratio to control [9]: 1.637 times
VEGFC expression log2 [ratio] [9]: 0.711
GDF9 gene expression, R* ratio to control [10]: 0.357 times
GDF9 gene expression, log2 [ratio] [10]: -1.49
TP53INP1 expression R*: Ratio to control [11]: 0.395 times
TP53INP1 expression log2 [ratio] [11]: −1.339
ZFPM2 expression R*: Ratio to control [12]: 1.678 times
ZFPM2 expression log2 [ratio] [12]: 0.746
TNFRSF10B expression R*: Ratio to control [13]: 0.636 times
TNFRSF10B expression log2 [ratio] [13]: −0.653
SOX7 expression R: Ratio to control [14]: 0.362 times
SOX7 expression log2 [ratio] [14]: −1.464
PPAP2B expression R*: Ratio to control [15]: 1.919 times
PPAP2B expression log2 [ratio] [15]: 0.941
CASP1 expression R*: Ratio to control [16]: 0.641 times
CASP1 expression log2 [ratio] [16]: −0.642
AEN expression R*: Ratio to control [17]: 0.420 times
AEN expression log2 [ratio] [17]: −1.253
CKLF expression R*: Ratio to control [18]: 1.601 times
CKLF expression log2 [ratio] [18]: 0.679
NQO1 gene expression, R* ratio to control [19]: 1.480 times
NQO1 gene expression, log2 [ratio] [19]: 0.566
SEPT4 expression R*: Ratio to control [20]: 0.503 times
SEPT4 expression log2 [ratio] [20]: −0.990
PMAIP1 expression R: Ratio to control [21]: 0.344 times
PMAIP1 expression log2 [ratio] [21]: −1.540
BAX expression R*: Ratio to control [22]: 0.453 times
BAX expression log2 [ratio] [22]: −1.143
CYP1B1 gene expression, R* ratio to control [23]: 1.584 times
CYP1B1 gene expression, log2 [ratio] [23]: 0.663
COL8A1 expression R*: Ratio to control [24]: 1.643 times
COL8A1 expression log2 [ratio] [24]: 0.716
TGFBR2 expression R*: Ratio to control [25]: 1.634 times
TGFBR2 expression log2 [ratio] [25]: 0.708
IL4 gene expression, R* ratio to control [26]: 0.420 times
IL4 gene expression, log2 [ratio] [26]: −1.251
CXCL14 gene expression, R* ratio to control [27]: 0.364 times
CXCL14 gene expression, log2 [ratio] [27]: −1.456
PERP expression R: Ratio to control [28]: 0.521 times
PERP expression log2 [ratio] [28]: −0.941
1FI16 expression R*: Ratio to control [29]: 0.585 times
1FI16 expression log2 [ratio] [29]: −0.773
AGGF1 expression R*: Ratio to control [30]: 1.523 times
AGGF1 expression log2 [ratio] [30]: 0.607
SST expression R: Ratio to control [31]: 0.666 times
SST expression log2 [ratio] [31]: −0.587
FAIM expression R*: Ratio to control [32]: 1.670 times
FAIM expression log2 [ratio] [32]: 0.740
TNFRSF10A expression R*: Ratio to control [33]: 0.402 times
TNFRSF10A expression log2 [ratio] [33]: −1.314
A1FM3 expression R*: Ratio to control [34]: 0.580 times
A1FM3 expression log2 [ratio] [34]: −0.761
PXDNL gene expression, R* ratio to control [35]: 2.426 times
PXDNL gene expression, log2 [ratio] [35]: 1.278
AREG gene expression, R* ratio to control [36]: 0.128 times
AREG gene expression, log2 [ratio] [36]: −2.969
IKBIP expression R*: Ratio to control [37]: 0.468 times
IKBIP expression log2 [ratio] [37]: −1.095
